Values of other authors as cited in publication PMC6784077 (Viruses, 2019).

enfuvirtide
t1/2: ~ 1.5 h
